The source of these data is patent US8771983B2, “Method and kit for expressing protein under regulation of the expression from repeated sequence formed by gene amplification, and transformant” (National University of Corporation Hiroshima University, priority 2004, dated 2014).

The test system of this assay is expression of d2EGFP in human colon cancer cells COLO 320DM cells. The experiment in a line: Level of expression of d2EGFP after treatment of cells with 5-aza-2′-deoxycytidine and/or Trichostatin A (Example 6). It is filed as cell-based. As to conditions: for accumulated fluorescence intensity / average fluorescence intensity: 3 days. As to the method:
Fluorescence intensity of these cells were measured by using a cell sorter. The measurement was carried out by sorting 20,000 cells by setting living cells at a gate. The cell sorter used was made by Becton Dickinson, and operated under conditions as described in the manual attached thereto.
In this method for detecting the fluorescence intensity, detection limit was 1, and all fluorescence intensities of 1 or less would be detected as 1. In view of this, a product of a ratio (cell %) of cells of fluorescence intensities of 2 or more in all living cells (10,000 cells) and an average of the fluorescence intensities of the cells having fluorescence intensities of 2 or more was calculated out for each experimental plot. This product is referred to as “accumulated fluorescence intensity” hereinafter and in later Examples and shown in boxed letter in the figures.
A mixture of a plasmid (pSFVdhfr/d2EGFP) and the plasmid DNA having the Aves-derived HS4 insulator sequence was transfected to human colon cancer cells COLO 320DM cells by lipofection. The plasmid (pSFVdhfr/d2EGFP) was a plasmid having (a) IR and MAR derived from human DHFR gene locus, (b) Blasticidin tolerance gene, and (c) d2EGFP gene that was under control of TRE-promoter (Tetracycline inducing promoter). The plasmid DNA having the Aves-derived HS4 insulator sequence was identical with the one described in Example 2. From 2 days later since the gene transfection, the cells were selected with 5 μg/ml of Blasticidin (Funakoshi Corp.). After 3 to 4 weeks, many colonies of transformed cells were obtained.
Into a culture solution of the transformed cells, of 1 μM or 3 μM of 5-aza-2′ deoxycytidine (hereinafter referred to as “5-aza” where appropriate; Sigma) was added. Thereby, the cells were treated with 5-aza for 3 days. For comparison purposes, 20 nM of Trichostatin A (hereinafter referred to as “TSA” where appropriate; histone deacetylation inhibitor, Sigma), which is known as a material for increasing gene expression from the repeated sequence, was added to some culture solutions of the transformed cells and analyzed.

Turning to `Nc1ncn([C@H]2C[C@H](O)[C@@H](CO)O2)c(=O)n1` [5-aza, 5-aza-2′-deoxycytidine], under “1 μM of 5-aza”, the accumulated fluorescence intensity was 895 and the average fluorescence intensity is recorded as 9.48. Where the note is “3 μM of 5-aza”, this molecule had an accumulated fluorescence intensity of 1040 and an average fluorescence intensity of 10.93. Besides, the “fluorescence intensity of the cells after treatment versus before treatment” value (fluorescence microscopic images, 1 μM of 5-aza) is reported as “higher”.
